Entries after “also recorded” stand apart in the source; their conditions may differ. Read-outs that look alike come from different tables or passages of the source.
Assays:
[1] = test system: K-562; assay: cells; type: cell-based; details: Homo sapiens, K562, K-562
[2] = test system: MOLT-4; assay: cells; details: Homo sapiens; for GI50: MOLT-4, read-out: concentration for primary growth inhibition
Description: The screening assay is performed on a 96-well microtitre plates.
Dose response curves, shown in the above mentioned Figures, are obtained by exposing various cancer cell lines to compounds having a known concentration ([log10 M]), as discussed in detail above, and then plotting the percentage growth of each cell line for each concentration. […] As discussed previously, the five drug dilutions routinely tested range from 10^-4 to 10^-9 molar.

[3] = test system: SR; assay: cells; type: cell-based; details: Homo sapiens, read-out: Log10 TGI (converted)
[4] = test system: A549/ATCC; assay: NCI 60 cell line screen (SRB), non-small cell lung cancer; type: cell-based; details: Homo sapiens; for CC50: read-out: Log10 LC50 (converted); for IC (TGI): read-out: Log10 TGI (converted)
[5] = test system: EKVX; assay: as above; type: cell-based; details: Homo sapiens; for CC50: read-out: Log10 LC50 (converted); for IC (TGI): read-out: Log10 TGI (converted)
[6] = test system: HOP-62; assay: cells; type: cell-based; details: Homo sapiens; for CC50: read-out: Log10 LC50 (converted); for IC (TGI): read-out: Log10 TGI (converted)
[7] = test system: HOP-92; assay: NCI 60 cell line screen (SRB), non-small cell lung cancer; type: cell-based; details: Homo sapiens; for CC50: read-out: Log10 LC50 (converted); for IC (TGI): read-out: Log10 TGI (converted)
[8] = test system: NCI-H226; assay: as above; type: cell-based; details: Homo sapiens; for CC50: read-out: Log10 LC50 (converted); for IC (TGI): read-out: Log10 TGI (converted)
[9] = test system: NCI-H23; assay: as above; type: cell-based; details: Homo sapiens; for IC (TGI): read-out: Log10 TGI (converted)
[10] = test system: NCI-H460; assay: cells; type: cell-based; details: Homo sapiens; for CC50: read-out: Log10 LC50 (converted)
[11] = test system: HCT-116; assay: cells; type: cell-based; details: Homo sapiens; for CC50: read-out: Log10 LC50 (converted); for IC (TGI): read-out: Log10 TGI (converted)
[12] = test system: HCT-15; assay: cells; type: cell-based; details: Homo sapiens, HCT-15
[13] = test system: HT29; assay: cells; type: cell-based; details: Homo sapiens, HT-29, read-out: Log10 TGI (converted)
[14] = test system: KM12; assay: cells; type: cell-based; details: Homo sapiens, read-out: Log10 TGI (converted)
[15] = test system: SW-620; assay: NCI 60 cell line screen (SRB), colon cancer; type: cell-based; details: Homo sapiens; for IC (TGI): read-out: Log10 TGI (converted)
[16] = test system: SNB-19; assay: cells; type: cell-based; details: Homo sapiens
[17] = test system: SNB-75; assay: cells; type: cell-based; details: Homo sapiens, read-out: Log10 TGI (converted)
[18] = test system: U251; assay: cells; type: cell-based; details: Homo sapiens; for CC50: U-251, read-out: Log10 LC50 (converted); for IC (TGI): U-251, read-out: Log10 TGI (converted)
[19] = test system: SK-MEL-2; assay: cells; type: cell-based; details: Homo sapiens; for CC50: read-out: Log10 LC50 (converted); for IC (TGI): read-out: Log10 TGI (converted)
[20] = test system: OVCAR-8; assay: NCI 60 cell line screen (SRB), ovarian cancer; type: cell-based; details: Homo sapiens; for CC50: read-out: Log10 LC50 (converted); for IC (TGI): read-out: Log10 TGI (converted)
[21] = test system: A498; assay: cells; type: cell-based; details: Homo sapiens; for CC50: read-out: Log10 LC50 (converted)
[22] = test system: TK-10; assay: cells; type: cell-based; details: Homo sapiens
[23] = test system: UO-31; assay: NCI 60 cell line screen (SRB), renal cancer; type: cell-based; details: Homo sapiens; for IC (TGI): read-out: Log10 TGI (converted)
[24] = test system: PC-3; assay: cells; type: cell-based; details: Homo sapiens, PC-3; for CC50: read-out: Log10 LC50 (converted)
[25] = test system: MCF7; assay: cells; type: cell-based; details: Homo sapiens, MCF7; for CC50: read-out: Log10 LC50 (converted)
[26] = test system: MDA-MB231/ATCC; assay: cells; type: cell-based; details: Homo sapiens; for GI50: MDA-MB-231, read-out: Log10 GI50 (converted); for CC50: MDA-MB-231, read-out: Log10 LC50 (converted); for IC (TGI): MDA-MB-231, read-out: Log10 TGI (converted)
[27] = test system: MDA-N; assay: cells; type: cell-based; details: Homo sapiens; for CC50: read-out: Log10 LC50 (converted); for IC (TGI): read-out: Log10 TGI (converted)
[28] = test system: BT-549; assay: cells; type: cell-based; details: Homo sapiens; for GI50: read-out: Log10 GI50 (converted); for IC (TGI): read-out: Log10 TGI (converted)
[29] = test system: T-47D; assay: cells; type: cell-based; details: Homo sapiens, T47D, T-47D
[30] = test system: 60 cell line panel; assay: NCI 60 cell line screen, whole panel; type: cell-based
[31] = test system: IGROVI; assay: cells; details: 60 cell; for IC (TGI): read-out: Log10 TGI
[32] = test system: ACHN; assay: cells; details: Homo sapiens; for CC50: read-out: Log10 LC50 (converted); for IC (TGI): read-out: Log10 TGI
[33] = test system: RXF 393; assay: cells; details: Homo sapiens; for GI50: RXF 393, read-out: Log10 GI50 (converted); for CC50: RXF 393, read-out: Log10 LC50 (converted)
[34] = test system: M14; assay: NCI 60 cell line screen (SRB), melanoma; details: Homo sapiens; for IC (TGI): M14, read-out: Log10 TGI
[35] = test system: NCI-H522; assay: cells; type: cell-based; details: Homo sapiens, read-out: Log10 TGI (converted)
[36] = test system: LOX IMVI; assay: cells; type: cell-based; details: Homo sapiens
[37] = read-out: Log10 GI50 (converted)
[38] = read-out: Log10 LC50 (converted)
[39] = MOLT-4, read-out: concentration for cytostasis
[40] = read-out: Log10 TGI (converted)

C[C@@H]1CC[C@H]2[C@@H](C)C(=O)O[C@@H]3O[C@@]4(C)CC[C@@H]1[C@]32OO4 [Artemisinin]
GI50 [1, 37]: 46.8 µM
CC50 [1, 38]: > 100 µM
CC50 ([2]; MOLT-4, read-out: Log10 LC50 (converted)): > 100 µM
IC (TGI) [2, 39]: > 100 µM
CC50 ([2]; MOLT-4, read-out: concentration for cytotoxicity): > 100 µM
GI50 [2]: > 100 µM
IC (TGI) [3]: > 100 µM
GI50 [4, 37]: 67.6 µM
CC50 [4]: > 100 µM
IC (TGI) [4]: > 100 µM
CC50 [5]: > 100 µM
IC (TGI) [5]: > 100 µM
CC50 [6]: > 100 µM
IC (TGI) [6]: > 100 µM
CC50 [7]: > 100 µM
IC (TGI) [7]: > 100 µM
CC50 [8]: > 100 µM
IC (TGI) [8]: > 100 µM
IC (TGI) [9]: > 100 µM
CC50 ([10]; NCI-H460): > 100 µM
CC50 [11]: > 100 µM
IC (TGI) [11]: > 100 µM
CC50 [12, 38]: > 100 µM
IC (TGI) [13]: > 100 µM
IC (TGI) [14]: > 100 µM
CC50 [15, 38]: > 100 µM
IC (TGI) [15]: > 100 µM
CC50 [16, 38]: > 100 µM
IC (TGI) [17]: > 100 µM
CC50 [18]: > 100 µM
IC (TGI) [18]: > 100 µM
CC50 [19]: > 100 µM
IC (TGI) [19]: > 100 µM
CC50 [20]: > 100 µM
IC (TGI) [20]: > 100 µM
CC50 [21]: > 100 µM
CC50 [22, 38]: > 100 µM
GI50 [23, 37]: 87.1 µM
CC50 [23, 38]: > 100 µM
IC (TGI) [23]: 100 µM
GI50 [24, 37]: 67.6 µM
CC50 [24]: > 100 µM
CC50 [25]: > 100 µM
GI50 [26]: 63.1 µM
CC50 [26]: > 100 µM
IC (TGI) [26]: 100 µM
CC50 [27]: > 100 µM
IC (TGI) [27]: > 100 µM
GI50 [28]: 87.1 µM
CC50 [28, 38]: > 100 µM
IC (TGI) [28]: 100 µM
CC50 [29, 38]: > 100 µM
GI50 ([30]; 60 cell, panel, read-out: Log10 GI50 Delta (converted)): 85.1 µM
Log10 LC50 Delta ([30]; panel): -4.00
Log10 TGI Delta ([30]; panel): -4.00
Log10 TGI Range ([30]; panel): 0.06
GI50 [31, 37]: 49 µM
IC (TGI) [31]: > 100 µM
CC50 [32]: > 100 µM
IC (TGI) [32]: > 100 µM
GI50 [33]: 83.2 µM
CC50 [33]: > 100 µM
IC (TGI) [34]: > 100 µM

C[C@H]1[C@@H](CC(=O)c2ccc(C(=O)C[C@H]3O[C@@H]4O[C@@]5(C)CC[C@H]6[C@H](C)CC[C@@H]([C@H]3C)[C@@]46OO5)cc2)O[C@@H]2O[C@@]3(C)CC[C@H]4[C@H](C)CC[C@@H]1[C@@]24OO3 [Dimer 21]
IC (TGI) ([2]; MOLT-4, read-out: Log10 TGI): 12.9 µM
IC (TGI) [2, 39]: ~100 µM
GI50 [2]: < 0.1 µM
IC (TGI) [3]: > 100 µM
CC50 [4]: 37.2 µM
IC (TGI) [4]: 13.5 µM
GI50 [5, 37]: 1.15 µM
CC50 [5]: > 100 µM
IC (TGI) [5]: 26.3 µM
GI50 [6, 37]: 0.417 µM
CC50 [6]: 52.5 µM
IC (TGI) [6]: 17.4 µM
GI50 [7, 37]: 0.0708 µM
CC50 [7]: 83.2 µM
IC (TGI) [7]: 17.4 µM
GI50 [8, 37]: 0.0832 µM
CC50 [8]: > 100 µM
IC (TGI) [8]: 28.2 µM
GI50 [9, 37]: 0.012 µM
IC (TGI) [9]: > 100 µM
IC (TGI) ([10]; NCI-H460, read-out: Log10 TGI): > 100 µM
GI50 ([10]; NCI-H460, read-out: Log10 GI50 (converted)): 0.525 µM
CC50 ([10]; NCI-H460): > 100 µM
IC (TGI) [35]: 28.2 µM
CC50 [11]: 51.3 µM
IC (TGI) [11]: 12.6 µM
IC (TGI) [12, 40]: 24.5 µM
IC (TGI) [13]: 15.1 µM
IC (TGI) [14]: 14.5 µM
IC (TGI) [15]: 87.1 µM
GI50 [16, 37]: 0.537 µM
IC (TGI) [16, 40]: 41.7 µM
IC (TGI) [17]: 34.7 µM
CC50 [18]: 41.7 µM
IC (TGI) [18]: 17 µM
CC50 [36, 38]: 49 µM
IC (TGI) [36, 40]: 12 µM
GI50 [19, 37]: 0.0389 µM
CC50 [19]: 25.1 µM
IC (TGI) [19]: 0.55 µM
CC50 [20]: 41.7 µM
IC (TGI) [20]: 12.3 µM
GI50 [21, 37]: 1.82 µM
CC50 [21]: 64.6 µM
IC (TGI) [21, 40]: 19.1 µM
GI50 [22, 37]: 0.00288 µM
IC (TGI) [23]: 57.5 µM
CC50 [24]: 47.9 µM
IC (TGI) [24, 40]: 11.5 µM
CC50 [25]: 53.7 µM
IC (TGI) [25, 40]: 13.2 µM
GI50 [26]: 0.178 µM
CC50 [26]: 46.8 µM
IC (TGI) [26]: 16.2 µM
CC50 [27]: 39.8 µM
IC (TGI) [27]: 5.75 µM
GI50 [28]: 0.263 µM
IC (TGI) [28]: 49 µM
IC (TGI) [29, 40]: 2.57 µM
GI50 ([30]; 60 cell, mean over panel, read-out: Log10 GI50 MG MID (converted)): 0.0589 µM
IC (TGI) ([30]; 60 cell, mean over panel, read-out: Log10 TGI MG MID (converted)): 93300 µM
CC50 ([30]; Homo sapiens, 60 cell, mean over panel, read-out: Log10 LC50 MG MID (converted)): 64.6 µM
potency compared with artemisinin ([30]; Tables III, IV and V): more potent than artemisinin
potency compared with paclitaxel ([30]; Tables III, IV and V): in most instances are as potent and in some instances more potent than paclitaxel; also recorded: equivalent to and in many instances higher in potency than paclitaxel
Log10 TGI Range ([30]; panel): 4.00
IC (TGI) [31]: 12 µM
GI50 [32, 37]: 0.0195 µM
CC50 [32]: > 100 µM
IC (TGI) [32]: 69.2 µM
GI50 [33]: 2.57 µM
CC50 [33]: 49 µM
IC (TGI) ([33]; RXF 393, read-out: Log10 TGI): 19.5 µM
GI50 ([34]; M14, read-out: Log10 GI50 (converted)): 1.26 µM
CC50 ([34]; M14, read-out: Log10 LC50 (converted)): 45.7 µM
IC (TGI) [34]: 17.8 µM
